Consider 18 molecules from ChEMBL document CHEMBL1135959, “The discovery of SB-435495. A potent, orally active inhibitor of lipoprotein-associated phospholipase A(2) for evaluation in man” (Bioorg Med Chem Lett, 2002).

One series concerns the target Cytochrome P450 3A4 (Homo sapiens, UniProt P08684). Briefly: Inhibition of cytochrome P450 3A4. It counts as ADME.
The nature of series [1]: Permeability of compound was evaluated in an artificial membrane permeability assay. It counts as ADME, cell membranes. The note with it: PAMPA; read-out: Permeability (converted). (The PAMPA barrier holds no transporters, so it reflects passive diffusion.)
Series [2] can be described thus: Acid dissociation constant was determined for the compound. It counts as ADME.
For series [3], the target named is T1, Platelet-activating factor acetylhydrolase (Homo sapiens, UniProt Q13093).
T1 sequence (Q13093 whole entry): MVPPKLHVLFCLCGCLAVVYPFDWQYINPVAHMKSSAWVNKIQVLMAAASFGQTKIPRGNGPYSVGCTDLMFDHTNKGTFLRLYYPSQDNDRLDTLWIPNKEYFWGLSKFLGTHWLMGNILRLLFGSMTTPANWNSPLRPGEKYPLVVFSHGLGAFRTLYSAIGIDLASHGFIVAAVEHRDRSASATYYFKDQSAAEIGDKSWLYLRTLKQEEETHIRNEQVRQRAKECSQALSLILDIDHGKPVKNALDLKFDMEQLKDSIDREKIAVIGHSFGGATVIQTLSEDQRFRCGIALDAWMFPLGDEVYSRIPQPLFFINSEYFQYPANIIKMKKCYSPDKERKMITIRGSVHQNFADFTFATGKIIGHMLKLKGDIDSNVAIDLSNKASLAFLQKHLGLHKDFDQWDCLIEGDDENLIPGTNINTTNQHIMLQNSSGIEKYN
Briefly: Inhibitory concentration against Lipoprotein-Associated Phospholipase A2 (Lp-PLA2) was estimated.

The next series deals with Cytochrome P450 2D6 (Homo sapiens, UniProt P10635). Briefly: Inhibition of cytochrome P450 2D6. It is filed as ADME.
Sequence of Cytochrome P450 2D6 (P10635 whole entry): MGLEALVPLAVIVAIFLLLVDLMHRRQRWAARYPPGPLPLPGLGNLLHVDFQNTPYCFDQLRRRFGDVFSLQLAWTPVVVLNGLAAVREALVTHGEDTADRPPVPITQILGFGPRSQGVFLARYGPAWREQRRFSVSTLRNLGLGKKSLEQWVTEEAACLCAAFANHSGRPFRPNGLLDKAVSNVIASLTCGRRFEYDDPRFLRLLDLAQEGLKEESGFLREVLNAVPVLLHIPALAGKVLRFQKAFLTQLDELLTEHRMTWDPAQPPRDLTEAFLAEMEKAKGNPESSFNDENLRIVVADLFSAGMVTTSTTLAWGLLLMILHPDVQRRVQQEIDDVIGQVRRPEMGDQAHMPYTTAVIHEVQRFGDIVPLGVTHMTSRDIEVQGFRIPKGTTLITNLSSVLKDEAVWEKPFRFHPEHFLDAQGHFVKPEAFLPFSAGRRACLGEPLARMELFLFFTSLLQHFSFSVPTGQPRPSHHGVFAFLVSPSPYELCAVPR
Series [4] is described as follows: Solubility in pure water at pH 4.7. It is filed as physicochemical.
The species named for series [5] is Homo sapiens. Briefly: Concentration required to inhibit the subsequent monocyte chemotaxis by the compound during the copper catalyzed oxidation of human LDL. It is filed as functional.
Series [6] can be described thus: Oral bioavailability in rat. It is filed as ADME, organism-based. The note with it: in vivo.
The next series has as its target T2, Cytochrome P450 1A2 (Homo sapiens, UniProt P05177).
T2 sequence (P05177 whole entry): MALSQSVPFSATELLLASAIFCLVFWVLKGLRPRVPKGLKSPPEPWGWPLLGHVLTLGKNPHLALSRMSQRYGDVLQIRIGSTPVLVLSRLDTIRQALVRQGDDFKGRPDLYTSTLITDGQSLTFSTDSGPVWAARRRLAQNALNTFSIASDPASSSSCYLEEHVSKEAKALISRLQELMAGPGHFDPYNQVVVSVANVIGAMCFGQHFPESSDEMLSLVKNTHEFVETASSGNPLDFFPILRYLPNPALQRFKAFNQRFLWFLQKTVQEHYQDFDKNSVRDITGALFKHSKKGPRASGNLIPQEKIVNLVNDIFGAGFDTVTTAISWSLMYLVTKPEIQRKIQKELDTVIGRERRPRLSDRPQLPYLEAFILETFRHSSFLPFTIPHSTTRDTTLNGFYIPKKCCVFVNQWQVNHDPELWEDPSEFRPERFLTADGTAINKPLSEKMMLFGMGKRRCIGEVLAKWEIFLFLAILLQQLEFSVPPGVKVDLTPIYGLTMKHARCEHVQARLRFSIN
As to the kind of experiment: Inhibition of cytochrome P450 1A2. It counts as ADME.

A short description of series [7]: Oral bioavailability in dog. It counts as ADME, organism-based, Canis lupus familiaris. The note with it: in vivo, read-out: Bioavailabiility.
The species entered for series [8] is Homo sapiens. Briefly: Concentration required to inhibit the production of lyso-PtdCho by the compound during the copper catalyzed oxidation of human LDL. It is filed as functional.
Another series has as its target Cytochrome P450 2C9 (Homo sapiens, UniProt P11712). As to the kind of experiment: Inhibition of cytochrome P450 2C9. It counts as ADME.
Another series addresses Cytochrome P450 2C19 (Homo sapiens, UniProt P33261). Briefly: Inhibition of cytochrome P450 2C19. It is filed as ADME.

In brackets after ≈: the same amount, converted by molar mass.

Sequence of Cytochrome P450 3A4 (P08684 whole entry, the tested form may be a part): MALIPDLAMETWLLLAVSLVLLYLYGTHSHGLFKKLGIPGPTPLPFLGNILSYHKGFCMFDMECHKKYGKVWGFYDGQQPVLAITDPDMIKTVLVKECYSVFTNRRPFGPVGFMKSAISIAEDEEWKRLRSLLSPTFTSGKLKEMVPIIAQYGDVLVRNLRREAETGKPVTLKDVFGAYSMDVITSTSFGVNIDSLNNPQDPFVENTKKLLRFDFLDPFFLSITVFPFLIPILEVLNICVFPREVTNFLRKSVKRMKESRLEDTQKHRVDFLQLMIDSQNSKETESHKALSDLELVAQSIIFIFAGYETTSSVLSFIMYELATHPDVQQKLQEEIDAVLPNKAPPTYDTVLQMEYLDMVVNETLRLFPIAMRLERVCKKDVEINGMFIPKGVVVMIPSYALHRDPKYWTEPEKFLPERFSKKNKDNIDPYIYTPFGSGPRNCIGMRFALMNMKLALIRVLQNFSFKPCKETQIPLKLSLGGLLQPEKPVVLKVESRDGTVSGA
Sequence of Cytochrome P450 2C19 (P33261 whole entry): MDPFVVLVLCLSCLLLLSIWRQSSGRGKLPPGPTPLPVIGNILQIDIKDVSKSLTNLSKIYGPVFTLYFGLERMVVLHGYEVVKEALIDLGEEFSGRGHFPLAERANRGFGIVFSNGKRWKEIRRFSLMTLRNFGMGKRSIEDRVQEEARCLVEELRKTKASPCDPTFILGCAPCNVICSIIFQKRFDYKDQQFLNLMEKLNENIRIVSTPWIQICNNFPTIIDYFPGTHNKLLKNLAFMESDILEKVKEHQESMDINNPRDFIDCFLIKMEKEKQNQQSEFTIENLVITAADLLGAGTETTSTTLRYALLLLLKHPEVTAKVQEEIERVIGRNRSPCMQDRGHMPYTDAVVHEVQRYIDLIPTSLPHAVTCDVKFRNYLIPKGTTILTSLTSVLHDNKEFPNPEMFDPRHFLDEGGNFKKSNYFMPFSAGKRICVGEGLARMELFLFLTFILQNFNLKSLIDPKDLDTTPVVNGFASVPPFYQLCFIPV
Sequence of Cytochrome P450 2C9 (P11712 whole entry): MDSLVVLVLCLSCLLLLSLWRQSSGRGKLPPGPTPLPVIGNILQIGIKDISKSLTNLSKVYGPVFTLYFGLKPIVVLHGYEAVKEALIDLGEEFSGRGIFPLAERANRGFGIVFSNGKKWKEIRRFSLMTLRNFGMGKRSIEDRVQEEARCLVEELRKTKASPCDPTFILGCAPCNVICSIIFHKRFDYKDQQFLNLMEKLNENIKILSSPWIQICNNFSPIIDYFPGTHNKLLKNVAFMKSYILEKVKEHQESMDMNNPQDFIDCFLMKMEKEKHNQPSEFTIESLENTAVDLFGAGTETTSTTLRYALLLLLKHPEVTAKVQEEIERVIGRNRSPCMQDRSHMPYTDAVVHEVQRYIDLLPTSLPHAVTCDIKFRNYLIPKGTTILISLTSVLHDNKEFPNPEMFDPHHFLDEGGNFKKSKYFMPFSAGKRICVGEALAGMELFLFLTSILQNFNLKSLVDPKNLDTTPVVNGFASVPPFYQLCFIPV

`CN(C)C(=O)CN(Cc1ccc(-c2ccc(Cl)cc2)cc1)C(=O)Cn1cc(Cc2cnn(C)c2)c(=O)nc1SCc1ccc(F)cc1` showed an IC50 on Cytochrome P450 3A4 of over 0.5 µM.

At Cytochrome P450 3A4, `CCN(CC)CCN(Cc1ccc(-c2ccc(Cl)cc2)cc1)C(=O)Cn1cc(Cc2cnn(C)c2)c(=O)nc1SCc1ccc(F)cc1` returned an IC50 of 5 µM. Besides, the Papp in [1] is 80.6 nm/s. The pKa in [2] worked out at 8.3.

As to `CCN(CC)CCCN(Cc1ccc(-c2ccc(Cl)cc2)cc1)C(=O)Cn1cc(Cc2cnn(C)c2)c(=O)nc1SCc1ccc(F)cc1`, the IC50 at Cytochrome P450 3A4 came to 2 µM. For the same molecule, the Papp in series [1] was under 2.78 nm/s. Moreover, in series [2], the pKa was 9.

For `COc1ncc(Cc2cn(CC(=O)N(CCN(C)C)Cc3ccc(-c4ccc(Cl)cc4)cc3)c(SCc3ccc(F)cc3)nc2=O)cn1`, in [3], the IC50 is 0.0002 µM.

Take `CN1CCN(CCCN(Cc2ccc(-c3ccc(Cl)cc3)cc2)C(=O)Cn2cc(Cc3cnn(C)c3)c(=O)nc2SCc2ccc(F)cc2)CC1`: the IC50 on Cytochrome P450 3A4 was determined as 10 µM. Further, the Papp in series [1] was under 2.78 nm/s.

For `Cn1cc(Cc2cn(CC(=O)N(CC(=O)N3CCOCC3)Cc3ccc(-c4ccc(C(F)(F)F)cc4)cc3)c(SCc3ccc(F)cc3)nc2=O)cn1`, in [3], the concentration for half-maximal inhibition (IC50) was 0.0001 µM.

On Cytochrome P450 3A4, `CN(C)CCCN(Cc1ccc(-c2ccc(Cl)cc2)cc1)C(=O)Cn1cc(Cc2cnn(C)c2)c(=O)nc1SCc1ccc(F)cc1` had a 50% inhibitory concentration (IC50) of 17 µM. The Papp in series [1] was 2.78 nm/s.

In the case of `COc1ncc(Cc2cn(CC(=O)N(CCO)Cc3ccc(-c4ccc(Cl)cc4)cc3)c(SCc3ccc(F)cc3)nc2=O)cn1`, the IC50 in series [3] was 0.0002 µM.

Consider `CCN(CC)CCN(Cc1ccc(-c2ccc(C(F)(F)F)cc2)cc1)C(=O)Cn1cc(Cc2cnn(C)c2)c(=O)nc1SCc1ccc(F)cc1`, for which the concentration for half-maximal inhibition (IC50) at Cytochrome P450 2D6 was determined as 37 µM; against Cytochrome P450 3A4, 10 µM; in the series filed under Homo sapiens [5] it was 0.01 µM; against Cytochrome P450 1A2, 100 µM; in the series listed under Homo sapiens [8], 0.023 µM; against Cytochrome P450 2C9, 100 µM. This molecule showed an IC50 against Cytochrome P450 2C19 of over 40 µM. Besides, the concentration in solution in series [4] (solubility) came to 5 mg/mL (≈ 6.94 mM). The bioavailability in series [6] amounted to 13%; in series [7], 24%. The Papp in series [1] was 47.2 nm/s.

On to `CN(C)CCN(Cc1ccc(-c2ccc(Cl)cc2)cc1)C(=O)Cn1cc(Cc2cnn(C)c2)c(=O)nc1SCc1ccc(F)cc1`, for which the IC50 against Cytochrome P450 3A4 turned out to be 8 µM. Moreover, the Papp in series [1] is 5.56 nm/s.

With `Cn1cc(Cc2cn(CC(=O)N(CCN3CCCC3)Cc3ccc(-c4ccc(Cl)cc4)cc3)c(SCc3ccc(F)cc3)nc2=O)cn1`, the half-maximal inhibitory concentration (IC50) at Cytochrome P450 3A4 came to 6 µM. Also, the Papp in [1] is 11.1 nm/s.

In the case of `CN(C)CCN(Cc1ccc(-c2ccc(C(F)(F)F)cc2)cc1)C(=O)Cn1cc(Cc2cnn(C)c2)c(=O)nc1SCc1ccc(F)cc1`, on Cytochrome P450 3A4, the midpoint of inhibition, the IC50, lay at 30 µM. Moreover, in series [1], the Papp is under 2.78 nm/s.

Regarding `Cn1cc(Cc2cn(CC(=O)N(CCN3CCCCC3)Cc3ccc(-c4ccc(C(F)(F)F)cc4)cc3)c(SCc3ccc(F)cc3)nc2=O)cn1`, the results for the IC50 (against Cytochrome P450 3A4; in [3]) were 10 µM and 0.00017 µM, respectively. Also, the Papp in series [1] was 189 nm/s.

For the molecule `Cn1cc(Cc2cn(CC(=O)N(CCN)Cc3ccc(-c4ccc(Cl)cc4)cc3)c(SCc3ccc(F)cc3)nc2=O)cn1`, at Cytochrome P450 3A4, the IC50 was 15 µM. The Papp in [1] was 5.56 nm/s.

For the molecule `COc1ncc(Cc2cn(CC(=O)N(CC(=O)O)Cc3ccc(-c4ccc(Cl)cc4)cc3)c(SCc3ccc(F)cc3)nc2=O)cn1`, the IC50 in series [3] was 0.001 µM.

`Cn1cc(Cc2cn(CC(=O)N(CCO)Cc3ccc(-c4ccc(Cl)cc4)cc3)c(SCc3ccc(F)cc3)nc2=O)cn1` gave an IC50 on Cytochrome P450 3A4 of 19 µM. Besides, the Papp in [1] was 5.56 nm/s.

On Cytochrome P450 3A4, `Cn1cc(Cc2cn(CC(=O)N(CC(=O)O)Cc3ccc(-c4ccc(C(F)(F)F)cc4)cc3)c(SCc3ccc(F)cc3)nc2=O)cn1` registered an IC50 of 31 µM. For the same molecule, in series [1], the Papp was under 2.78 nm/s.

Regarding `COc1ncc(Cc2cn(CC(=O)N(CC(=O)N(C)C)Cc3ccc(-c4ccc(Cl)cc4)cc3)c(SCc3ccc(F)cc3)nc2=O)cn1`, the IC50 on Cytochrome P450 3A4 is under 0.5 µM; in [3], 0.0002 µM.

One may read the IC50 as the concentration that gives 50% inhibition. For orientation: pKa means the negative logarithm of the acid dissociation constant. Low readings indicate a group that gives up its proton readily, high ones a group that holds its proton tightly. In general, solubility refers to how much of the substance goes into solution per volume. A low value points to little dissolved substance.
